# According to patent US8148392B2, “2-indolyl imidazo [4,5-d] phenanthroline derivatives and their use in the treatment of cancer” (Lorus Therapeutics Inc., priority 2005, dated 2012):
# How the values were obtained:
# Type in all cases: cell-based, human
# [1] = tested on: KLF4 protein; experiment: KLF4 protein in HT-29 cells, Western blot; conditions: HT-29, 2.5, 5, 7.5 and 10 μM, 16 hours
# Method: The ability of compound of Formula I to increase expression of KLF4 protein was determined as follows. HT-29 cells were treated with vehicle control (DMSO), TPEN (4 μM), ZnCl2 (100 μM), or compound 3 (2.5, 5, 7.5 and 10 μM) for 16 hours. Cells were lysed and subjected to Western blot with anti-KLF4 antibodies, or GAPDH antibodies to ensure equal protein loading.
# [2] = tested on: copper transporter, Ctrl also known as SLC31A1; experiment: Copper transporter Ctr1 (SLC31A1) gene expression in HT-29 cells, RT-PCR
# Method: The effect of compound 3 and compound 7 treatment on the expressions of a zinc-storage protein meallothionein 1A (MT1A) (FIG. 29A), a copper transporter, Ctrl also known as SLC31A1 (FIG. 29B) and an iron transporter; transferrin receptor 1 (TfR1) (FIG. 29C) were measured and compared with a known zinc chelator TPEN, a copper chelator tetramine and an iron chelator DFO, respectively. Despite in vitro chelation of Cu^+2, increase in copper-sensitive gene after compound 3 treatment was transient.
# [3] = tested on: Sp1; experiment: Sp1 binding to Cyclin D1 promoter, ChIP, HT-29; conditions: HT-29, ChIP
# Method: Based on overlapping transcription factor binding sites on Cyclin D1 gene promoter region (FIG. 33A), increased binding of a negative regulator KLF4 may replace the binding of a positive regulator Sp1. In vivo KLF4 and Sp1 binding to Cyclin D1 promoter was shown by chromatin immuno-precipitation assay (ChIP) (FIG. 33B).
# Chromatin immunoprecipitation (ChIP) was performed as follows. Cell lysates from HT-29 cells (5.5×10^5 cells in three 15 cm-culture plates in each experimental group) were prepared at the end of the indicated experiments, and ChIP assays were performed using anti-KLF4 and anti-Sp1 antibodies (Santa Cruz Biotechnology Inc.) and ChIP-ITTM kit (Active Motif, Carlsbad, Calif.) by following the manufacturer's instruction. The primers encompassing-231 to -92 region of Cyclin D1 promoter; 5′ primer (5′-CGGACTACAGGGGCAA-3′) [SEQ ID NO:1] and 3′ primer (5′-GCTCCAGGACTTTGCA-3′) [SEQ ID NO:2] were synthesized at Invitrogen.
# [4] = tested on: HT-29 cells; experiment: HT-29 cell proliferation (XTT) after knock-down of KLF4 gene by siRNA; conditions: HT-29, XTT
# Method: Small interfering RNA (siRNA) transfection was performed as follows. Pre-designed MTF-1 siRNA (ID #115734) (Ambion, Austin, Tex.) was used to knockdown endogenous MTF-1 mRNA. Similarly, pre-designed KLF4 siRNA (ID #115492) (Ambion, Austin, Tex.) was used to knockdown endogenous KLF4 mRNA. A nonspecific, double-stranded RNA
# was synthesized at Qiagen (Cambridge, Mass.) based on the sequence of an unrelated gene. HT-29 cells (3×10^5 cells in 35 mm-culture dishes) were transfected with indicated concentrations of siRNA or scrambled RNA control using Lipofectamine™ 2000 transfection reagent (Invitrogen) by following the manufacturer's instruction, for 6 hr. At the end of the incubation period, the transfection medium was supplemented with a complete growth medium and the cells were incubated at 37° C. for 24 hr before indicated experiments.
# [5] = tested on: p21 protein; experiment: p21 protein in HT-29 total cell lysate, ELISA / Western blot; conditions: HT-29, 1 μM
# Method: The expressions of p21 gene and proteins were examined following treatment with compound 3. Gene expression of p21 in HT-29 cells treated with 1 μM compound 3 was determined at the indicated times as follows. Total RNA was extracted and gene expression level was determined by RT-PCR (FIG. 42A). The level of p21 protein in total cell lysate was measured by ELISA (FIG. 42B) as follows. HT-29 cells were treated with 1 μM compound 3 with and without 20 μM MG-132 (proteasome inhibitor) for indicated time.
# [6] = tested on: Egr-1; experiment: Egr-1 gene expression in HT-29 cells, RT-PCR
# Method: Like Sp1, Egr-1 also is a transcription factor with zinc finger DNA-binding domains, which recognizes GC-rich sequences in the regulatory promoter region of the targeted gene (Al-Sarraj et al., (2005) J. Cell Biochem. 94(1): 153-167). Changes in Egr-1 gene expression were detected in compound 3-treated HT-29 cells by RT-PCR (FIG. 44A) as follows. HT-29 cells were treated with 1 μM compound 3 for the indicated times. Total RNA was extracted and gene expression level was determined by RT-PCR. To determine the effects of zinc supplement, HT-29 cells were treated with 1 μM compound 3, 35 μM ZnCl2 or compound 3 and ZnCl2 together for 8 hr. Egr-1 gene expression was determined by RT-PCR (FIG. 44B).
# [7] = tested on: MTF-1; experiment: MTF-1 binding to Cyclin D1 promoter, ChIP, HT-29; conditions: HT-29, 16 hr, versus basal level
# Method: To examine decreased MTF-1 binding to the promoter region of the MTF-1-targeted gene, cell-cycle regulatory gene Cyclin D1, HT-29 cells were treated with compound 3 for 16 hr and MTF-1 binding to Cyclin D1 promoter was assessed by chromatin immuno-precipitation assay (ChIP) (Active Motif, Carlsbad, Calif.). At the end of 16 hr treatment with compound 3, the cells were fixed with 1% formaldehyde to cross-link transcriptions factors and their target chromatin. Chromatin complexes were sheared and MTF-1-bound chromatin was pulled down by using antibody to MTF-1 (Santacruz Biotechnology Inc.). Cross-linking was reversed and the MTF-1-associated DNA was amplified by polymerase chain reaction using the primers encompassing −231 to −92 region of Cyclin D1 promoter. The 5′ primer (5′-CGGACTACAGGGGCAA-3′) [SEQ ID NO:1] and the 3′ primer (5′-GCTCCAGGACTTTGCA-3′) [SEQ ID NO:2] were synthesized at Invitrogen.
compound,measurement,setting,value
Cc1[nH]c2ccccc2c1-c1nc2c3cccnc3c3ncccc3c2[nH]1 [Compound 3],level of KLF4 protein,[1],able to increase the level of KLF4 protein
same,copper-sensitive gene expression,[2],transient
same,Sp1 binding to Cyclin D1 promoter,[3],decreased Sp1 binding
same,cell growth inhibition after knock-down of KLF4 gene by siRNA,[4],loss of compound 3-mediated cell growth inhibition
same,p21 protein level,[5]; with 20 μM MG-132 (proteasome inhibitor),increased p21 protein level was detected
same,p21 protein expression,[5]; without MG-132,comparable increase in p21 protein expression was not detected
same,Egr-1 expression change with zinc supplement,"[6]; HT-29, 1 μM compound plus 35 μM ZnCl2, 8 hr",reversible upon addition of zinc supplement
same,Egr-1 gene expression,"[6]; HT-29, 1 μM, as early as 2 hr",significant increase in Egr-1 gene expression
same,MTF-1 binding to Cyclin D1 promoter,[7],Decreased MTF-1 binding to Cyclin D1 promoter
